Assay results from patent EP0863891B1, “(METHYLSULFONYL)PHENYL-2-(5H)-FURANONES AS COX-2 INHIBITORS” (Merck Frosst Canada & Co., priority 1995, dated 1997).
Like-named read-outs stand apart in the source and are kept apart here.

How the values were obtained:
COX-2 [1] = biological target: T1, COX-2 (Homo sapiens, UniProt P35354); experiment: Human whole blood assay, COX-2 (LPS-induced PGE2 production); format: cell-based; design: endogenous in cells; host or cells: fresh heparinized human whole blood from volunteers, induced with LPS; details: human whole blood, LPS, 24 hours
T1 sequence (P35354 18-604): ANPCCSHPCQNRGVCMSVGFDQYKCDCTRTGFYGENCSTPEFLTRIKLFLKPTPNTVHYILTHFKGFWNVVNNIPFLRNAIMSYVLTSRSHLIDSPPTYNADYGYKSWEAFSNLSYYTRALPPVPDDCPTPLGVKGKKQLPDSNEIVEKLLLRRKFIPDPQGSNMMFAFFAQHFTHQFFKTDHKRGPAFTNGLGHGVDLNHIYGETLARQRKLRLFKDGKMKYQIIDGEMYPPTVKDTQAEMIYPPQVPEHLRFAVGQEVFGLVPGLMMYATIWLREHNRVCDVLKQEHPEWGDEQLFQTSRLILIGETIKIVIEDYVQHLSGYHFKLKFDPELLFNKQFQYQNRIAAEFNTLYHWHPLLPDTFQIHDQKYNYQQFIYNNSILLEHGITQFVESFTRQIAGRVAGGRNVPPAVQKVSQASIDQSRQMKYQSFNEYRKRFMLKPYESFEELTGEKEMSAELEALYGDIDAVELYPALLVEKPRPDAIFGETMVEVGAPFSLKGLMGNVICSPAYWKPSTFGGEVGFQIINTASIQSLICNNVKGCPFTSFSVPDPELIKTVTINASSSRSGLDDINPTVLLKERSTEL
Source text: As well, platelets in whole blood contain a large amount of the COX-1 enzyme. Immediately following blood clotting, platelets are activated through a thrombin-mediated mechanism. […] Therefore, the degree of selectivity by the test compound can be determined by measuring the levels of PGE2 after LPS induction (COX-2) and TxB2 following blood clotting (COX-1) in the same assay.
A. COX-2 (LPS-induced PGE2 production)
Fresh blood is collected in heparinized tubes by venipuncture from both male and female volunteers. The subjects have no apparent inflammatory conditions and have not taken any NSAIDs for at least 7 days prior to blood collection. Plasma is immediately obtained from a 2mL blood aliquot to use as blank (basal levels of PGE2).

CHO [hCOX-2] = biological target: T2, CHO [hCOX-2] (Homo sapiens, UniProt P35354); experiment: Whole cell assay for COX-2 using CHO transfected cell line (PGE2 synthesis); format: cell-based
T2 construct: expressed in transfected cells; host or cells: CHO cells, stably transfected with pCDNAIII
T2 sequence (P35354 18-604): T1 sequence (P35354 18-604)
Method: Chinese hamster ovary (CHO) cell lines which have been stably transfected with an eukaryotic expression vector pCDNAIII containing either the human COX-1 or COX-2 cDNA's are used for the assay. These cell lines are referred to as CHO [hCOX-1] and CHO [hCOX-2], respectively. […] Cells (0.3 x 10^6 cells in 200 µl) are preincubated with 3 µl of the test drug or DMSO vehicle for 15 min at 37°C. […] Cells are then challenged in the presence or absence of drug with the AA/HBSS solution to yield a final concentration of 0.5 µM AA in the CHO[hCOX-1] assay and a final concentration of 10 µM AA in the CHO[hCOX-2] assay. […] The samples are centrifuged at 300 x g at 4°C for 10 min, and an aliquot of the clarified supernatant is appropriately diluted for the determination of PGE2 levels using an enzyme-linked immunoassay for PGE2 (Correlate PGE2 enzyme immunoassay kit, Assay Designs, Inc.). Cyclooxygenase activity in the absence of test compounds is determined as the difference in PGE2 levels of cells challenged with arachidonic acid versus the PGE2 levels in cells mock-challenged with ethanol vehicle. Inhibition of PGE2 synthesis by test compounds is calculated as a percentage of the activity in the presence of drug versus the activity in the positive control samples.
In the assay, inhibition is determined by measuring the amount of prostaglandin E2 (PGE2) synthesized in the presence of arachidonic acid, cyclooxygenase-1 or cyclooxygenase-2 and a putative inhibitor.

COX-2 [2] = biological target: T1, COX-2; experiment: Assay of the activity of purified human COX-2 (TMPD chromogenic assay); format: biochemical; design: made in house; host or cells: Sf9 cells
Method: Assay of the activity of purified human COX-2
The assay mixture (180 µL) contains 100 mM sodium phosphate, pH 6.5, 2 mM genapol X-100, 1 µM hematin, 1 mg/ml gelatin , 80-100 units of purified enzyme (One unit of enzyme is defined as the amount of enzyme required to produce an O.D. change of 0.001/min at 610 nm) and 4 µL of the test compound in DMSO. The mixture is pre-incubated at room temperature (22°C) for 15 minutes prior to initiation of the enzymatic reaction by the addition of 20 µL of a sonicated solution of I mM arachidonic acid (AA) and 1 mM TMPD in assay buffer (without enzyme or hematin). The enzymatic activity is measured by estimation of the initial velocity of TMPD oxidation over the first 36 sec of the reaction. […] IC50 values are derived from 4-parameter least squares non-linear regression analysis of the log-dose vs % inhibition plot.

[3] = Table IV, read-out: COX-2(IC50, µM) HWB
[4] = Table IV, CHO[hCOX-2] cells, 10 µM AA, read-out: COX-2(IC50, µM) CHO
[5] = Table IV, purified enzyme, TMPD oxidation, read-out: COX-2(IC50, µM) TMPD
[6] = Table III, CHO[hCOX-2] cells, 10 µM AA, read-out: COX-2 (IC50) CHO
[7] = Table III, purified enzyme, TMPD oxidation, read-out: COX-2 (IC50) TMPD
[8] = Table III, read-out: COX-2 (IC50) HWB

SMILES	IC50 (COX-2 [1]; [3]) [µM]	IC50 (CHO [hCOX-2]; [4]) [µM]	IC50 (COX-2 [2]; [5]) [µM]	IC50 (CHO [hCOX-2]; [6]) [µM]	IC50 (COX-2 [2]; [7]) [µM]	IC50 (COX-2 [1]; [8]) [µM]	IC50 (CHO [hCOX-2]) [µM]	IC50 (COX-2 [2]) [µM]
CC1(C)OC(=O)C(OC2CCc3ccccc32)=C1c1ccc(S(C)(=O)=O)cc1 (stereo not shown) [Example 175, 3-(1-Indanyloxy)-5,5-dimethyl-4-(4-(methylsulfonyl)phenyl)-5H-furan-2-one]	2.3	0.05	9.5					
CC1(C)OC(=O)C(Sc2nccs2)=C1c1ccc(S(C)(=O)=O)cc1 [Example 57, 3-(2-Thiazolylthio)-5,5-dimethyl-4-(4-(methylsulfonyl)phenyl)-5H-furan-2-one]	23	2	54					
CC1(C)OC(=O)C(OC2Cc3ccccc3C2)=C1c1ccc(S(C)(=O)=O)cc1 [Example 176]	0.08	0.03	2.2					
CC1(C)OC(=O)C(Oc2ccc3ncccc3c2)=C1c1ccc(S(C)(=O)=O)cc1 [Example 55, 3-(6-Quinolinoxy)-5,5-dimethyl-4-(4-(methylsulfonyl)phenyl)-5H-furan-2-one]	1.2	1.8	43					
CC1(C)OC(=O)C(Sc2ccc(Cl)cn2)=C1c1ccc(S(C)(=O)=O)cc1 [Example 45, 3-(5-Chloro-2-pyridylthio)-5,5-dimethyl-4-(4-methylsulfonyl)phenyl-5H-furan-2-one]	1.8	> 5	11					
C[C@]1(CC(F)(F)F)OC(=O)C(Oc2ccc(Cl)cn2)=C1c1ccc(S(C)(=O)=O)cc1 [Example 130, (5R)-3-(5-Chloro-2-pyridyloxy)-5-methyl-4-(4-methylsulfonyl)phenyl-5-(2,2,2-trifluoroethyl)-5H-furan-2-one]	< 0.4	0.03	7.9					
CC1(C)OC(=O)C(Oc2ccc(Cl)c(Cl)c2)=C1c1ccc(S(C)(=O)=O)cc1 [Example 7, 3-(3,4-Dichlorophenoxy)-5,5-dimethyl-4-(4-(methylsulfonyl)phenyl)-5H-furan-2-one]				0.009	1.4			
Cc1ccc(OC2=C(c3ccc(S(C)(=O)=O)cc3)C(C)(C)OC2=O)cn1 [Example 39, 3-(2-Methyl-5-pyridyloxy)-5,5-dimethyl-4-(4-(methylsulfonyl)phenyl)-5H-furan-2-one]	0.08	0.92	3.3					
CS(=O)(=O)c1ccc(C2=C(Sc3ccccc3)C(=O)OC23CCCC3)cc1 [Example 21, 4-(4-(Methylsulfonyl)phenyl)-3-phenylthio-1-oxaspiro[4.4]non-3-en-2-one]				0.23	0.47	1.04		
CCCC1(C)OC(=O)C(Oc2ccc(F)cc2)=C1c1ccc(S(C)(=O)=O)cc1 (stereo not shown) [Example 124, 3-(4-Fluorophenoxy)-5-methyl-4-(4-methylsulfonyl)phenyl-5-propyl-5H-furan-2-one]	< 0.41	0.03	6.3					
CCC(CC)OC1=C(c2ccc(S(C)(=O)=O)cc2)C(C)(C)OC1=O [Example 113, 5,5-Dimethyl-4-(4-methylsulfonylphenyl)-3-(3-pentoxy)-5H-furan-2-one]	< 0.41	0.03	8.7					
CC1(C)OC(=O)C(Oc2ccc3ncsc3c2)=C1c1ccc(S(C)(=O)=O)cc1 [Example 159, 3-(6-benzothiazolyloxy)-5,5-dimethyl-4-(4-(methylsulfonyl)phenyl)-5H-furan-2-one]	0.26	0.07	25					
CN(C1=C(c2ccc(S(C)(=O)=O)cc2)C(C)(C)OC1=O)c1ccccc1 [Example 13, 3-(N-Methyl-N-phenylamino)-5,5-dimethyl-4-(4-(methylsulfonyl)-phenyl)-5H-furan-2-one]				0.118	64.4	2.65		
CC1(C)OC(=O)C(Nc2ccccc2)=C1c1ccc(S(C)(=O)=O)cc1 [Example 12, 3-(N-Phenylamino)-5,5-dimethyl-4-(4-(methylsulfonyl)phenyl)-5H-furan-2-one]							3.52	14.7
